# Results as given in patent US20260022143A1, “Cyclic Peptide Inhibitors of IL-23” (JANSSEN PHARMACEUTICA NV, priority 2022, published 2026).
# Starred links: 1 amine or outer side, 2 acyl side, 3 side chain; linkers in the order of their positions; H or OH if unused. Positions of bridges follow the written chain, without caps; N, C: chain ends. Non-standard residues stand in square brackets, D forms with d. Residues, ends and D or L forms follow the SMILES beside them. Groups on a side chain read outwards from the residue. *: point of attachment. Me3N+(CH2)2O(CH2)2O(CH2)2CO = C[N+](C)(C)CCOCCOCCC(=O)*; X59 = C[N+](C)(C)CCN(CC*)S(=O)(=O)c1ccccc1[N+](=O)[O-]; CH2CH2OCH2CH2OCH2CH2NMe3+ = C[N+](C)(C)CCOCCOCC*; NH(CH2CH2O)2CH2CH2NMe3+ = C[N+](C)(C)CCOCCOCCN*; Trp(7-Me) = Cc1cccc2c(C[C@H](N)C(=O)O)c[nH]c12; Dab(NMeAc) = CC(=O)N(C)CC[C@H](N)C(=O)O; CH2CH2OCH2CH2NMe3+ = C[N+](C)(C)CCOCC*; 2Nal = N[C@@H](Cc1ccc2ccccc2c1)C(=O)O; X19 = C[N+](C)(C)C[C@@H](CC(=O)O)N*; X65 = COCCOCCC[N+](C)(CCCOCCOC)CC*; X22 = CN1CC[N+](C)(CCOCCOCC*)CC1; 3Pal = N[C@@H](Cc1cccnc1)C(=O)O; X54 = CC(=O)N(CC[N+](C)(C)C)CC*; Lys(Me) = CNCCCC[C@H](N)C(=O)O; Pen = CC(C)(S)[C@H](N)C(=O)O; Suc = O=C(CCC(=O)[*:2])[*:1]; X4 = COCCOCCCN(CCCOCCOC)CC*; X18 = C[N+]1(C)CCOC(C*)C1; Thp = NC1(C(=O)O)CCOCC1; X3 = C[N+](C)(C)CCCCC*; Sar = CNCC(=O)O
# Key:
# [1] = target: T1, IL-23R (Homo sapiens, UniProt Q5VWK5); test: IL23R Reporter Assay; format: cell-based; details: HEK293 cells containing IL-23R, IL-12RP1 and STAT-inducible firefly luciferase reporter; 10 ng/mL IL-23 (EC90); 5 h at 37° C.; read-out: IL23R Reporter Assay
# T1 construct: host or cells: HEK293
# T1 sequence (Q5VWK5 24-629): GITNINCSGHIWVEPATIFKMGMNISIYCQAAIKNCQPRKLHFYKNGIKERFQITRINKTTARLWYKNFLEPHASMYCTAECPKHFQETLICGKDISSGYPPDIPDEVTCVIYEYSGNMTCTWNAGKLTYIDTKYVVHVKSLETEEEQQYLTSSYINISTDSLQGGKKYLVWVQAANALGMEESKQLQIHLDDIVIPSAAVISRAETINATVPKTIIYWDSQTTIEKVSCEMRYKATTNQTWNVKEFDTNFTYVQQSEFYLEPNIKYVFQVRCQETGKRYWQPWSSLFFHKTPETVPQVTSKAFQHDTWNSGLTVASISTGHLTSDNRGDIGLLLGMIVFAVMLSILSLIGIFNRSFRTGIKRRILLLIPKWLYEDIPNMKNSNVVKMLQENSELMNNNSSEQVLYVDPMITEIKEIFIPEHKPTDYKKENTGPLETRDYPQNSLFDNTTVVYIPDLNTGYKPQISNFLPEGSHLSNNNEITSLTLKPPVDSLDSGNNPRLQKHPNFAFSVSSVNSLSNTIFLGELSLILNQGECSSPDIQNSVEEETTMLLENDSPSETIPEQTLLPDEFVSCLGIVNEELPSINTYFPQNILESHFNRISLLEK
# [2] = Exposed Polar Surface Area (EPSA); format: physicochemical; details: SFC on Chirex 3014 column; sample 1 mM DMSO stock; read-out: EPSA
# In short: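 Retention-based polarity: supercritical CO2 with 20 mM ammonium formate in MeOH (5–60%, 20%/min), Chirex 3014 column, 35 °C. Calibrated against 8 standards to give EPSA (Å^2); each sample measured twice.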
SMILES,IC50 [1],EPSA [2]
"CC(=O)N(C)CCCC[C@@H]1NC(=O)[C@H](Cc2c[nH]c3c(C)cccc23)NC(=O)[C@H]([C@@H](C)O)NC(=O)[C@H](CC(=O)N(C)C)NC(=O)[C@@H](NC(=O)CCOCCOCC[N+](C)(C)C)C(C)(C)SSC(C)(C)[C@@H](C(=O)N[C@@H](Cc2ccc(OCCOCC[N+](C)(C)C)cc2)C(=O)N[C@@H](Cc2ccc3ccccc3c2)C(=O)NC2(C(=O)N[C@@H](CCCCN(C)C(C)=O)C(=O)N[C@@H](CC(N)=O)C(=O)N[C@@H](Cc3cccnc3)C(=O)N(C)CC(=O)N(C)C)CCOCC2)NC1=O [compound 199, cPEG3aCO-Pen(3)-N(N(Me)2)-T-7MeW-K(NMeAc)-Pen(3)-APEG2F-2Nal-THP-K(NMeAc)-N-3Pya-Sar-CON(Me)2] ({Me3N+(CH2)2O(CH2)2O(CH2)2CO}-[Pen]D(NMe2)T[Trp(7-Me)][Lys(Me)](Ac)[Pen]Y(CH2CH2OCH2CH2NMe3+)[2Nal][Thp][Lys(Me)](Ac)N[3Pal][Sar]-NMe2; disulfide 1-6)",3 nM,141 A^2
"CC(=O)N(C)CCCC[C@@H]1NC(=O)[C@H](Cc2c[nH]c3c(C)cccc23)NC(=O)[C@H]([C@@H](C)O)NC(=O)[C@H](CC(=O)N(C)C)NC(=O)[C@@H](NC(=O)CCOCCOCC[N+](C)(C)C)C(C)(C)SSC(C)(C)[C@@H](C(=O)N[C@@H](Cc2ccc(OCC3C[N+](C)(C)CCO3)cc2)C(=O)N[C@@H](Cc2ccc3ccccc3c2)C(=O)NC2(C(=O)N[C@@H](CCCCN(C)C(C)=O)C(=O)N[C@@H](CC(N)=O)C(=O)N[C@@H](Cc3cccnc3)C(=O)N(C)CC(=O)N(C)C)CCOCC2)NC1=O (stereo partly drawn) [compound 202, cPEG3aCO-Pen(3)-N(N(Me)2)-T-7MeW-K(NMeAc)-Pen(3)-DMPMF-2Nal-THP-K(NMeAc)-N-3Pya-Sar-CON(Me)2] ({Me3N+(CH2)2O(CH2)2O(CH2)2CO}-[Pen]D(NMe2)T[Trp(7-Me)][Lys(Me)](Ac)[Pen]Y(X18)[2Nal][Thp][Lys(Me)](Ac)N[3Pal][Sar]-NMe2; disulfide 1-6)",3.5 nM,146 A^2
"COCCOCCCN(CCCOCCOC)CCOc1ccc(C[C@H](NC(=O)[C@H]2NC(=O)[C@H](CCCCN(C)C(C)=O)NC(=O)[C@H](Cc3c[nH]c4c(C)cccc34)NC(=O)[C@H]([C@@H](C)O)NC(=O)[C@H](CC(=O)N(C)C)NC(=O)[C@@H](NC(=O)CCOCCOCC[N+](C)(C)C)C(C)(C)SSC2(C)C)C(=O)N[C@@H](Cc2ccc3ccccc3c2)C(=O)NC2(C(=O)N[C@@H](CCCCN(C)C(C)=O)C(=O)N[C@@H](CC(N)=O)C(=O)N[C@@H](Cc3cccnc3)C(=O)N(C)CC(=O)N(C)C)CCOCC2)cc1 [compound 203, cPEG3aCO-Pen(3)-N(N(Me)2)-T-7MeW-K(NMeAc)-Pen(3)-AEF(BisMEP))-2Nal-THP-K(NMeAc)-N-3Pya-Sar-CON(Me)2] ({Me3N+(CH2)2O(CH2)2O(CH2)2CO}-[Pen]D(NMe2)T[Trp(7-Me)][Lys(Me)](Ac)[Pen]Y(X4)[2Nal][Thp][Lys(Me)](Ac)N[3Pal][Sar]-NMe2; disulfide 1-6)",1.6 nM,135 A^2
"CC(=O)N(C)CCCC[C@@H]1NC(=O)[C@H](Cc2c[nH]c3c(C)cccc23)NC(=O)[C@H]([C@@H](C)O)NC(=O)[C@H](CC(=O)N(C)C)NC(=O)[C@@H](NC(=O)CCOCCOCC[N+](C)(C)C)C(C)(C)SSC(C)(C)[C@@H](C(=O)N[C@@H](Cc2ccc(OCCN(CC[N+](C)(C)C)S(=O)(=O)c3ccccc3[N+](=O)[O-])cc2)C(=O)N[C@@H](Cc2ccc3ccccc3c2)C(=O)NC2(C(=O)N[C@@H](CCCCN(C)C(C)=O)C(=O)N[C@@H](CC(N)=O)C(=O)N[C@@H](Cc3cccnc3)C(=O)N(C)CC(=O)N(C)C)CCOCC2)NC1=O [compound 206, cPEG3aCO-Pen(3)-N(N(Me)2)-T-7MeW-K(NMeAc)-Pen(3)-AEF(NsCh)-2Nal-THP-K(NMeAc)-N-3Pya-Sar-CON(Me)2] ({Me3N+(CH2)2O(CH2)2O(CH2)2CO}-[Pen]D(NMe2)T[Trp(7-Me)][Lys(Me)](Ac)[Pen]Y(X59)[2Nal][Thp][Lys(Me)](Ac)N[3Pal][Sar]-NMe2; disulfide 1-6)",2.6 nM,145 A^2

# The remaining lines, values ahead:
IC50 [1],EPSA [2],SMILES
3.2 nM,139 A^2,"CC(=O)N(C)CCCC[C@@H]1NC(=O)[C@H](Cc2c[nH]c3c(C)cccc23)NC(=O)[C@H]([C@@H](C)O)NC(=O)[C@H](CC(=O)N(C)C)NC(=O)[C@@H](NC(=O)CCOCCOCC[N+](C)(C)C)C(C)(C)SSC(C)(C)[C@@H](C(=O)N[C@@H](Cc2ccc(OCCN(CC[N+](C)(C)C)C(C)=O)cc2)C(=O)N[C@@H](Cc2ccc3ccccc3c2)C(=O)NC2(C(=O)N[C@@H](CCCCN(C)C(C)=O)C(=O)N[C@@H](CC(N)=O)C(=O)N[C@@H](Cc3cccnc3)C(=O)N(C)CC(=O)N(C)C)CCOCC2)NC1=O [compound 207, cPEG3aCO-Pen(3)-N(N(Me)2)-T-7MeW-K(NMeAc)-Pen(3)-AEF(AcCh)-2Nal-THP-K(NMeAc)-N-3Pya-Sar-CON(Me)2] ({Me3N+(CH2)2O(CH2)2O(CH2)2CO}-[Pen]D(NMe2)T[Trp(7-Me)][Lys(Me)](Ac)[Pen]Y(X54)[2Nal][Thp][Lys(Me)](Ac)N[3Pal][Sar]-NMe2; disulfide 1-6)"
5.1 nM,154 A^2,"CC(=O)N[C@H](CCCCNC(=O)CCC(=O)N[C@H](CC(=O)O)C[N+](C)(C)C)C(=O)N[C@@H]1C(=O)N[C@@H](CC(=O)N(C)C)C(=O)N[C@@H]([C@@H](C)O)C(=O)N[C@@H](Cc2c[nH]c3c(C)cccc23)C(=O)N[C@@H](CCCCN(C)C(C)=O)C(=O)N[C@H](C(=O)N[C@@H](Cc2ccc(OCCOCCOCC[N+](C)(C)C)cc2)C(=O)N[C@@H](Cc2ccc3ccccc3c2)C(=O)NC2(C(=O)N[C@@H](CCN(C)C(C)=O)C(=O)N[C@@H](CC(N)=O)C(=O)N[C@@H](Cc3cccnc3)C(=O)N(C)CC(=O)N(C)C)CCOCC2)C(C)(C)SSC1(C)C [compound 213, MeCO-k(d)-Pen(3)-N(N(Me)2)-T-7MeW-K(NMeAc)-Pen(3)-APEG3F-2Nal-THP-Dab(NMeAc)-N-3Pya-Sar-CON(Me)2] (Ac-[dK]([Suc-X19])[Pen]D(NMe2)T[Trp(7-Me)][Lys(Me)](Ac)[Pen]Y(CH2CH2OCH2CH2OCH2CH2NMe3+)[2Nal][Thp][Dab(NMeAc)]N[3Pal][Sar]-NMe2; disulfide 2-7)"
1.4 nM,142 A^2,"CC(=O)N(C)CCCC[C@@H]1NC(=O)[C@H](Cc2c[nH]c3c(C)cccc23)NC(=O)[C@H]([C@@H](C)O)NC(=O)[C@H](CC(=O)N(C)C)NC(=O)[C@@H](NC(=O)CCOCCOCC[N+](C)(C)C)C(C)(C)SSC(C)(C)[C@@H](C(=O)N[C@@H](Cc2ccc(OCCCCC[N+](C)(C)C)cc2)C(=O)N[C@@H](Cc2ccc3ccccc3c2)C(=O)NC2(C(=O)N[C@@H](CCCCN(C)C(C)=O)C(=O)N[C@@H](CC(N)=O)C(=O)N[C@@H](Cc3cccnc3)C(=O)N(C)CC(=O)NCCOCCOCC[N+](C)(C)C)CCOCC2)NC1=O [compound 220, cPEG3aCO-Pen(3)-N(N(Me)2)-T-7MeW-K(NMeAc)-Pen(3)-TMAPF-2Nal-THP-K(NMeAc)-N-3Pya-Sar-CO(NHPEG3a)] ({Me3N+(CH2)2O(CH2)2O(CH2)2CO}-[Pen]D(NMe2)T[Trp(7-Me)][Lys(Me)](Ac)[Pen]Y(X3)[2Nal][Thp][Lys(Me)](Ac)N[3Pal][Sar]-{NH(CH2CH2O)2CH2CH2NMe3+}; disulfide 1-6)"
1.8 nM,134 A^2,"COCCOCCC[N+](C)(CCCOCCOC)CCOc1ccc(C[C@H](NC(=O)[C@H]2NC(=O)[C@H](CCCCN(C)C(C)=O)NC(=O)[C@H](Cc3c[nH]c4c(C)cccc34)NC(=O)[C@H]([C@@H](C)O)NC(=O)[C@H](CC(=O)N(C)C)NC(=O)[C@@H](NC(=O)CCOCCOCC[N+](C)(C)C)C(C)(C)SSC2(C)C)C(=O)N[C@@H](Cc2ccc3ccccc3c2)C(=O)NC2(C(=O)N[C@@H](CCCCN(C)C(C)=O)C(=O)N[C@@H](CC(N)=O)C(=O)N[C@@H](Cc3cccnc3)C(=O)N(C)CC(=O)N(C)C)CCOCC2)cc1 [compound 221, cPEG3aCO-Pen(3)-N(N(Me)2)-T-7MeW-K(NMeAc)-Pen(3)-AEF(BisMEPa)-2Nal-THP-K(NMeAc)-N-3Pya-Sar-CON(Me)2Â] ({Me3N+(CH2)2O(CH2)2O(CH2)2CO}-[Pen]D(NMe2)T[Trp(7-Me)][Lys(Me)](Ac)[Pen]Y(X65)[2Nal][Thp][Lys(Me)](Ac)N[3Pal][Sar]-NMe2; disulfide 1-6)"
3 nM,139 A^2,"CC(=O)N(C)CCCC[C@@H]1NC(=O)[C@H](Cc2c[nH]c3c(C)cccc23)NC(=O)[C@H]([C@@H](C)O)NC(=O)[C@H](CC(=O)N(C)C)NC(=O)[C@@H](NC(=O)CCOCCOCC[N+](C)(C)C)C(C)(C)SSC(C)(C)[C@@H](C(=O)N[C@@H](Cc2ccc(OCCOCCOCC[N+]3(C)CCN(C)CC3)cc2)C(=O)N[C@@H](Cc2ccc3ccccc3c2)C(=O)NC2(C(=O)N[C@@H](CCCCN(C)C(C)=O)C(=O)N[C@@H](CC(N)=O)C(=O)N[C@@H](Cc3cccnc3)C(=O)N(C)CC(=O)N(C)C)CCOCC2)NC1=O [compound 224, cPEG3aCO-Pen(3)-N(N(Me)2)-T-7MeW-K(NMeAc)-Pen(3)-MPzPEG3F-2Nal-THP-K(NMeAc)-N-3Pya-Sar-CON(Me)2] ({Me3N+(CH2)2O(CH2)2O(CH2)2CO}-[Pen]D(NMe2)T[Trp(7-Me)][Lys(Me)](Ac)[Pen]Y(X22)[2Nal][Thp][Lys(Me)](Ac)N[3Pal][Sar]-NMe2; disulfide 1-6)"
